Test results as given in US8981106B2, “Pyrimidinecarboxamides as CXCR2 modulators” (Syntrix Biosystems, Inc., priority 2009, dated 2015).

These compounds were tested against CXCR2 (Homo sapiens (Human), UniProt P25025) (assay: Inhibition of GROα-mediated intracellular calcium release in human neutrophils (FLIPR-3 Ca2+ mobilization)). Conditions: human neutrophils, 25 nM GROα; read-out: IC50.
Format: cell-based
Procedure: In Tables 1-5, the IC50 or EC50 values were determined using the following assay. This assay measures intracellular calcium release via fluorescence as an indication of CXCR2 receptor activation by the physiologic agonist GROα. The assay is a Ca^2+ mobilization assay that measures changes in intracellular Ca^2+ with a FlexStation II scanning fluorometer using a FLIPR-3 Calcium Assay Kit (Molecular Devices, Sunnyvale, Calif.). The procedure is as follows:
1. Human neutrophils were suspended in HBSS^− (without Ca^2+ and Mg^2+) containing 10 mM HEPES and FLIPR Calcium 3 dye (3.1×10^7 cells in total volume 1.7 mL).
2. […] As controls, 2 μL of DMSO (1% final concentration) were added to other 2 tubes.
3. Cells were incubated for 30 min at 37° C.
4. After dye loading, tubes were centrifuged at 6,000 rpm for 1 min, supernatant was removed and cell pellet was re-suspended in 200 μL of HBSS^+ (with Ca^2+ and Mg^2+) containing 10 mM HEPES.
5. The compound or DMSO (control) was added again at the same concentrations that were used during cell loading.
6. The cell suspension was aliquoted into a 96-well Reading Plate (Corning) in a volume of 90 μL (10^5 cells/well). The Compound Plate contained physiologic agonist (GROα in HBSS^−) or HBSS^− (control).
9. The maximum change in fluorescence, expressed in arbitrary units over baseline (Max-Min) was used to determine the GROα response. […] Therapeutic Activity
Briefly, human neutrophils were suspended in HBSS^− (without Ca^2+ and Mg^2+) containing 10 mM HEPES and FLIPR Calcium 3 dye (3.1×10^7 cells in total volume 1.7 mL). […] As controls, 2 μL of DMSO (1% final concentration) were added to 2 other tubes. Cells were incubated for 30 min at 37° C. After dye loading, tubes were centrifuged at 6,000 rpm for 1 min, supernatant was removed and the cell pellet was re-suspended in 200 μL of HBSS^+ (with Ca^2+ and Mg^2+) containing 10 mM HEPES. The test compound or DMSO (control) was added again at the same concentrations that were used during cell loading. The cell suspension was aliquoted into a 96-well Reading Plate (Corning) in a volume of 90 μL (10^5 cells/well). The Compound Plate contained agonist (GROα in HBSS^−) or HBSS^− (control).
The maximum change in fluorescence, expressed in arbitrary units over baseline (Max-Min), was used to determine the GROα response.

CXCR2, sequence (P25025 whole entry): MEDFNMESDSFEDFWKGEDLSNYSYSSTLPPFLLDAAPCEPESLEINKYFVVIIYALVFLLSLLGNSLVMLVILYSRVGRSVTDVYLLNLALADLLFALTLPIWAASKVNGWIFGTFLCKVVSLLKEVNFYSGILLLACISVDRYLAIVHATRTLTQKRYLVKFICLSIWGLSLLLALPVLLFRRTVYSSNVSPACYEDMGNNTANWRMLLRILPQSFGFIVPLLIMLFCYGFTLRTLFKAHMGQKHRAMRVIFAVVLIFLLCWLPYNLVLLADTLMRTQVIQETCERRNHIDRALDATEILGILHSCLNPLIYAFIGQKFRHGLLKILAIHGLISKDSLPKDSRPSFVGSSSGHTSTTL

Row | IC50 | SMILES
1 | 0.052 ± 0.005 µM | O=C(Nc1ccc(F)cc1)c1ccc(SCc2cc(F)ccc2B(O)O)nc1 [Compound 3]
2 | > 10 µM | COc1cc(CSc2ccc(C(=O)Nc3ccc(F)cc3)cn2)c(B(O)O)cc1OC [Compound 5, 6-(2-boronic acid-4,5-di-methoxy-benzylsulfanyl)-N-(4-fluoro-phenyl)-nicotinamide]
3 | > 10 µM | O=C(Nc1ccc(F)cc1)c1ccc(SCc2cc3c(cc2B(O)O)OCO3)nc1 [Compound 6]
4 | 1.97 ± 0.75 µM | O=C(Nc1ccc(F)cc1)c1ccc(SCc2cccc(B(O)O)c2)nc1 [Compound 7]
5 | 0.899 ± 0.15 µM | O=C(Nc1ccc(F)cc1)c1ccc(SCc2ccc(B(O)O)cc2)nc1 [Compound 8]
6 | 0.387 ± 0.125 µM | O=C(Nc1ccc(F)cc1)c1ccc(SCCc2ccccc2B(O)O)nc1 [Compound 9]
7 | 0.689 ± 0.23 µM | O=C(Nc1ccc(F)cc1)c1ccc(SCCCCB(O)O)nc1 [Compound 10]
8 | 0.393 ± 0.16 µM | O=C(Nc1ccc(F)cc1)c1ccc(SCc2ccccc2)nc1 [Compound 12]
9 | > 5 µM | CC(=O)Oc1ccccc1CSc1ccc(C(=O)Nc2ccc(F)cc2)cn1 [Compound 13a]
10 | 1.06 ± 0.27 µM | CC(=O)Oc1ccc(OC(F)(F)F)cc1CSc1ccc(C(=O)Nc2ccc(F)cc2)cn1 [Compound 14a]
11 | 0.611 µM | CC1(C)OB(c2ccccc2CCSc2ccc(C(=O)Nc3ccc(F)cc3)cn2)OC1(C)C [Compound 15]
12 | 0.275 ± 0.103 µM | CC1(C)OB(c2ccccc2CSc2ccc(C(=O)Nc3ccc(F)cc3)cn2)OC1(C)C [Compound 16]
13 | 1.23 ± 0.12 µM | CC1(C)OB(c2ccc(F)cc2CSc2ccc(C(=O)Nc3ccc(F)cc3)cn2)OC1(C)C [Compound 18]
14 | 0.072 ± 0.007 µM | CC1(C)OB(c2ccc(OC(F)(F)F)cc2CSc2ccc(C(=O)Nc3ccc(F)cc3)cn2)OC1(C)C [Compound 19, 6-(2-boronic pinacol ester-5-trifluoromethoxy-benzylsulfanyl)-N-(4-fluoro-phenyl)-nicotinamide]
15 | 0.112 ± 0.067 µM | CC1(C)OB(c2ccc(CSc3ccc(C(=O)Nc4ccc(F)cc4)cn3)cc2)OC1(C)C [Compound 20]
16 | 0.759 ± 0.19 µM | COC(=O)c1ccccc1CSc1ccc(C(=O)Nc2ccc(F)cc2)cn1 [Compound 21]
17 | 1.48 ± 0.49 µM | O=C(Nc1ccc(F)cc1)c1ccc(SCc2ccccc2C(=O)O)nc1 [Compound 24]
18 | 2.12 ± 0.74 µM | O=C(O)c1cccc(CSc2ccc(C(=O)Nc3ccc(F)cc3)cn2)c1 [Compound 25]
19 | 0.173 ± 0.046 µM | O=C(Nc1ccc(F)cc1)c1ccc(SCc2ccccc2-c2nn[nH]n2)nc1 [Compound 26]
20 | 1.61 µM | O=C(Nc1ccc(F)cc1)c1ccc(SCc2ccc(Cl)c(Cl)c2)nc1 [Compound 27]
21 | > 10 µM | O=C(Nc1ccc(F)cc1)c1ccc(SCc2ccc(-c3ccsc3)cc2)nc1 [Compound 29]
22 | > 10 µM | Cc1nc(-c2ccc(CSc3ccc(C(=O)Nc4ccc(F)cc4)cn3)cc2)no1 [Compound 34]
23 | > 10 µM | O=C(Nc1ccc(F)cc1)c1ccc(SCc2ccc([N+](=O)[O-])cc2)nc1 [Compound 39]
24 | > 5 µM | O=C(Nc1ccc(F)cc1)c1ccc(SCc2cc([N+](=O)[O-])ccc2O)nc1 [Compound 40]

Row | IC50 | SMILES
25 | 3.9 ± 1.2 µM | O=C(Nc1ccc(F)cc1)c1ccc(SCc2nn[nH]n2)nc1 [Compound 49]
26 | 0.35 µM | O=C(Nc1ccc(F)cc1)c1ccc(SCc2cccc3c2OCCCO3)nc1 [Compound 50]
27 | 0.76 µM | O=C(Nc1ccc(F)cc1)c1ccc(SCC2COc3ccccc3O2)nc1 (centres unmarked) [Compound 51]
28 | 1.58 µM | O=C(Nc1ccc(F)cc1)c1ccc(SCCOc2cccc3c2OCCO3)nc1 [Compound 52]
29 | > 5 µM | O=C(Nc1ccc(F)cc1)c1ccc(SCc2cccc3cccnc23)nc1 [Compound 53]
30 | > 5 µM | O=C(Nc1ccc(F)cc1)c1ccc(SCc2nccc3ccccc23)nc1 [Compound 54]
31 | > 10 µM | Cc1ccc2cc(CSc3ccc(C(=O)Nc4ccc(F)cc4)cn3)ccc2n1 [Compound 55]
32 | > 5 µM | O=C(Nc1ccc(F)cc1)c1ccc(SCc2ccc3nc(C(F)(F)F)cc(Cl)c3c2)nc1 [Compound 56]
33 | > 10 µM | Nc1nc(N)c2nc(CSc3ccc(C(=O)Nc4ccc(F)cc4)cn3)cnc2n1 [Compound 57]
34 | > 5 µM | O=C(Nc1ccc(F)cc1)c1ccc(SCCCN2C(=O)c3ccc([N+](=O)[O-])cc3C2=O)nc1 [Compound 58]
35 | > 10 µM | O=C(Nc1ccc(F)cc1)c1ccc(SCCCCN2C(=O)c3ccc([N+](=O)[O-])cc3C2=O)nc1 [Compound 59]
36 | > 10 µM | O=C(Nc1ccc(F)cc1)c1ccc(SCCCCCCN2C(=O)c3ccc([N+](=O)[O-])cc3C2=O)nc1 [Compound 60]
37 | > 10 µM | O=C(Nc1ccc(F)cc1)c1ccc(SCc2ccc3nsnc3c2)nc1 [Compound 62]
38 | > 10 µM | O=C(Nc1ccc(F)cc1)c1ccc(SCc2cc3nsnc3cc2Cl)nc1 [Compound 63]
39 | > 5 µM | O=C(Nc1ccc(F)cc1)c1ccc(SCc2cccc3nsnc23)nc1 [Compound 64]
40 | 0.216 ± 0.066 µM | O=C(Nc1ccc(F)cc1)c1ccc(SCc2ccc3nonc3c2)nc1 [Compound 65]
41 | > 5 µM | O=C(Nc1ccc(F)cc1)c1ccc(SCc2cccc3nonc23)nc1 [Compound 66]
42 | > 10 µM | Cn1c(CSc2ccc(C(=O)Nc3ccc(F)cc3)cn2)nc2ccccc21 [Compound 67]
43 | > 10 µM | O=C(Nc1ccc(F)cc1)c1ccc(SCc2nc3ccccc3s2)nc1 [Compound 68]
44 | > 10 µM | O=C(Nc1ccc(F)cc1)c1ccc(SCc2csc3ccc(Cl)cc23)nc1 [Compound 69]
45 | 1.21 ± 0.39 µM | Cc1nc(-c2ccccc2)sc1CSc1ccc(C(=O)Nc2ccc(F)cc2)cn1 [Compound 70]
46 | > 10 µM | O=C(Nc1ccc(F)cc1)c1ccc(SCCOc2ccccc2)nc1 [Compound 72]
47 | 0.542 ± 0.104 µM | O=C(Nc1ccc(F)cc1)c1ccc(SCC2CCCO2)nc1 (centres unmarked) [Compound 76]
48 | > 10 µM | O=C(Nc1ccc(F)cc1)c1ccc(SCC2CCOCC2)nc1 [Compound 77]

Row | SMILES | IC50
49 | CC1(C)C2CC3OB(c4ccccc4CSc4ccc(C(=O)Nc5ccc(F)cc5)cn4)OC3(C)C1C2 (centres unmarked) [Compound 17] | 0.059 ± 0.029 µM
50 | COC(=O)c1cccc(CSc2ccc(C(=O)Nc3ccc(F)cc3)cn2)c1 [Compound 22] | > 5 µM
51 | COC(=O)c1ccc(CSc2ccc(C(=O)Nc3ccc(F)cc3)cn2)cc1 [Compound 23] | > 10 µM
52 | Cc1cccc(CSc2ccc(C(=O)Nc3ccc(F)cc3)cn2)c1F [Compound 28] | > 10 µM
53 | O=C(Nc1ccc(F)cc1)c1ccc(SCc2ccccc2-c2cccs2)nc1 [Compound 30] | > 5 µM
54 | O=C(Nc1ccc(F)cc1)c1ccc(SCc2ccc(-n3cccc3)cc2)nc1 [Compound 31] | > 10 µM
55 | O=C(Nc1ccc(F)cc1)c1ccc(SCc2ccc(-n3cccn3)cc2)nc1 [Compound 32] | > 10 µM
56 | O=C(Nc1ccc(F)cc1)c1ccc(SCc2ccc(-n3cncn3)cc2)nc1 [Compound 33] | > 10 µM
57 | Cc1nc(-c2cccc(CSc3ccc(C(=O)Nc4ccc(F)cc4)cn3)c2)no1 [Compound 35] | > 10 µM
58 | Cc1nc(-c2ccc(CSc3ccc(C(=O)Nc4ccc(F)cc4)cn3)cc2)cs1 [Compound 36] | > 10 µM
59 | Cc1nc(-c2cccc(CSc3ccc(C(=O)Nc4ccc(F)cc4)cn3)c2)cs1 [Compound 37] | > 5 µM
60 | O=C(Nc1ccc(F)cc1)c1ccc(SCc2cccc(-n3cccc3)c2)nc1 [Compound 38] | > 10 µM
61 | O=C(Nc1ccc(F)cc1)c1ccc(SCc2ccc(OC(F)(F)F)cc2)nc1 [Compound 41] | > 10 µM
62 | O=C(Nc1ccc(F)cc1)c1ccc(SCc2cccc(OC(F)(F)F)c2)nc1 [Compound 42] | > 10 µM
63 | O=C(Nc1ccc(F)cc1)c1ccc(SCc2ccncc2)nc1 [Compound 43] | > 5 µM
64 | Cc1cc(CSc2ccc(C(=O)Nc3ccc(F)cc3)cn2)no1 [Compound 44] | > 5 µM
65 | Cc1onc(-c2ccccc2)c1CSc1ccc(C(=O)Nc2ccc(F)cc2)cn1 [Compound 45] | > 5 µM
66 | Cc1noc(-c2ccccc2)c1CSc1ccc(C(=O)Nc2ccc(F)cc2)cn1 [Compound 46] | > 10 µM
67 | Cc1n[nH]c(C)c1CCSc1ccc(C(=O)Nc2ccc(F)cc2)cn1 [Compound 47] | > 5 µM
68 | Cc1nc(-c2ccc(C(F)(F)F)cc2)sc1CSc1ccc(C(=O)Nc2ccc(F)cc2)cn1 [Compound 71] | > 10 µM
69 | O=C(Nc1ccc(F)cc1)c1ccc(SCc2ccc(C(F)(F)F)o2)nc1 [Compound 74] | > 5 µM
70 | O=C(Nc1ccc(F)cc1)c1ccc(SCc2ccc([N+](=O)[O-])o2)nc1 [Compound 75] | > 5 µM
71 | O=C(Nc1ccc(F)cc1)c1ccc(SCC2CCCCO2)nc1 (centres unmarked) [Compound 78] | > 5 µM
